Measurements published in article PMC5218480 (PLoS ONE, 2017).

Test system: MV-4-11 cells
Assay: Gene expression microarray analysis (Affymetrix PrimeView) and GSEA
Assay type: cell-based, human
Parameters: RFU PODN (11730768_x_at) / Fold change /veh PODN (11730768_x_at) / RFU LINC00158 (11744669_a_at) / Fold change /veh LINC00158 (11744669_a_at) / RFU DUSP10 (11751237_a_at) / Fold change /veh DUSP10 (11751237_a_at) / RFU ID3 (11757404_x_at) / Fold change /veh ID3 (11757404_x_at) / RFU PLEKHG5 (11737974_s_at) / Fold change /veh PLEKHG5 (11737974_s_at) / RFU LRRC4B (11730491_at) / Fold change /veh LRRC4B (11730491_at) / RFU GIMAP4 (11747438_a_at) / Fold change /veh GIMAP4 (11747438_a_at) / RFU KRT8 (11758183_x_at) / Fold change /veh KRT8 (11758183_x_at) / RFU CNN1 (11734310_a_at) / Fold change /veh CNN1 (11734310_a_at) / RFU VPS37D (11726825_at) / Fold change /veh VPS37D (11726825_at) / RFU C10orf10 (11716522_x_at) / Fold change /veh C10orf10 (11716522_x_at) / RFU KIR2DL2 /// KIR2DL4 /// KIR2DL5A /// KIR2DL5B /// KIR2DS1 /// KIR2DS2 /// KIR2DS3 /// KIR2DS4 /// KIR3DL3 /// KIR3DL3 /// KIR3DS1 (11738374_at) / Fold change /veh KIR2DL2 /// KIR2DL4 /// KIR2DL5A /// KIR2DL5B /// KIR2DS1 /// KIR2DS2 /// KIR2DS3 /// KIR2DS4 /// KIR3DL3 /// KIR3DL3 /// KIR3DS1 (11738374_at) / RFU C1QL1 (11718748_at) / Fold change /veh C1QL1 (11718748_at) / RFU TMPRSS4 (11747572_a_at) / Fold change /veh TMPRSS4 (11747572_a_at) / RFU HAMP (11756126_x_at) / Fold change /veh HAMP (11756126_x_at) / RFU RNFT2 (11725882_a_at) / Fold change /veh RNFT2 (11725882_a_at) / RFU NR4A2 (11747474_a_at) / Fold change /veh NR4A2 (11747474_a_at) / RFU ABCC12 (11746883_a_at) / Fold change /veh ABCC12 (11746883_a_at) / RFU TMEM136 (11760407_x_at) / Fold change /veh TMEM136 (11760407_x_at) / RFU CLDN22 /// WWC2 (11732394_at) / Fold change /veh CLDN22 /// WWC2 (11732394_at) / RFU HLA-DPB1 (11760878_x_at) / Fold change /veh HLA-DPB1 (11760878_x_at) / RFU SPINT1 (11716480_a_at) / Fold change /veh SPINT1 (11716480_a_at) / RFU GAP43 (11754022_s_at) / Fold change /veh GAP43 (11754022_s_at) / RFU A4GNT (11735810_at) / Fold change /veh A4GNT (11735810_at) / RFU PRB3 (11715151_x_at) / Fold change /veh PRB3 (11715151_x_at) / RFU TUBB4B (11761932_at) / Fold change /veh TUBB4B (11761932_at) / RFU CAPN14 (11732068_a_at) / Fold change /veh CAPN14 (11732068_a_at) / RFU TMCC2 (11721928_a_at) / Fold change /veh TMCC2 (11721928_a_at) / RFU IRGQ (11745062_a_at) / Fold change /veh IRGQ (11745062_a_at) / RFU FAM174B (11720279_a_at) / Fold change /veh FAM174B (11720279_a_at) / RFU TMPRSS4 (11748680_a_at) / Fold change /veh TMPRSS4 (11748680_a_at) / RFU FAM212B (11763350_a_at) / Fold change /veh FAM212B (11763350_a_at) / RFU PLEKHG5 (11743358_a_at) / Fold change /veh PLEKHG5 (11743358_a_at) / RFU ZSCAN30 (11745921_a_at) / Fold change /veh ZSCAN30 (11745921_a_at) / RFU CMKLR1 (11741424_a_at) / Fold change /veh CMKLR1 (11741424_a_at) / RFU LOC101060620 /// MAPK8IP1 (11723275_at) / Fold change /veh LOC101060620 /// MAPK8IP1 (11723275_at) / RFU SPTSSB (11747773_x_at) / Fold change /veh SPTSSB (11747773_x_at) / RFU PRSS12 (11739890_at) / Fold change /veh PRSS12 (11739890_at) / RFU BIN1 (11741810_x_at) / Fold change /veh BIN1 (11741810_x_at) / RFU WNT11 (11732464_a_at) / Fold change /veh WNT11 (11732464_a_at) / RFU C10orf10 (11716521_a_at) / Fold change /veh C10orf10 (11716521_a_at) / RFU C5orf56 (11738089_at) / Fold change /veh C5orf56 (11738089_at) / RFU CYB561 (11721691_x_at) / Fold change /veh CYB561 (11721691_x_at) / RFU ANKRD19P (11752326_a_at) / Fold change /veh ANKRD19P (11752326_a_at) / RFU OR2T12 /// OR2T33 /// OR2T8 (11738714_s_at) / Fold change /veh OR2T12 /// OR2T33 /// OR2T8 (11738714_s_at) / RFU VCAN (11748164_a_at) / Fold change /veh VCAN (11748164_a_at) / RFU JSRP1 (11732532_at) / Fold change /veh JSRP1 (11732532_at) / RFU KRTAP10-11 (11738290_x_at) / Fold change /veh KRTAP10-11 (11738290_x_at) / RFU MYO3A (11730013_a_at) / Fold change /veh MYO3A (11730013_a_at) / RFU EBF3 (11725865_a_at) / Fold change /veh EBF3 (11725865_a_at) / RFU CAMK2N1 (11719241_x_at) / Fold change /veh CAMK2N1 (11719241_x_at) / RFU C5orf56 (11738088_a_at) / Fold change /veh C5orf56 (11738088_a_at) / RFU OLFML3 (11715873_a_at) / Fold change /veh OLFML3 (11715873_a_at) / RFU LOC100653217 /// NTM (11731650_a_at) / Fold change /veh LOC100653217 /// NTM (11731650_a_at) / RFU MAPK11 (11762145_a_at) / Fold change /veh MAPK11 (11762145_a_at) / RFU FIZ1 (11724087_x_at) / Fold change /veh FIZ1 (11724087_x_at) / RFU OASL (11726364_x_at) / Fold change /veh OASL (11726364_x_at) / RFU SOX15 (11748057_x_at) / Fold change /veh SOX15 (11748057_x_at) / RFU CD79A (11719716_a_at) / Fold change /veh CD79A (11719716_a_at) / RFU HIST1H1D (11736915_at) / Fold change /veh HIST1H1D (11736915_at) / RFU CASKIN2 (11723855_a_at) / Fold change /veh CASKIN2 (11723855_a_at) / RFU LOC730098 (11760151_x_at) / Fold change /veh LOC730098 (11760151_x_at) / RFU OR4N2 (11742367_at) / Fold change /veh OR4N2 (11742367_at) / RFU PRRT2 (11749266_a_at) / Fold change /veh PRRT2 (11749266_a_at) / RFU SNX32 (11753110_a_at) / Fold change /veh SNX32 (11753110_a_at) / RFU CDHR5 (11726645_a_at) / Fold change /veh CDHR5 (11726645_a_at) / RFU RCAN1 (11760418_a_at) / Fold change /veh RCAN1 (11760418_a_at) / RFU FAM167A (11723789_a_at) / Fold change /veh FAM167A (11723789_a_at) / RFU FAM26E (11764081_at) / Fold change /veh FAM26E (11764081_at) / RFU ISYNA1 (11749810_s_at) / Fold change /veh ISYNA1 (11749810_s_at) / RFU ACY1 (11761880_at) / Fold change /veh ACY1 (11761880_at) / RFU 11764098_at / Fold change /veh 11764098_at / RFU SAMD14 (11745864_x_at) / Fold change /veh SAMD14 (11745864_x_at) / RFU NPB (11741838_a_at) / Fold change /veh NPB (11741838_a_at) / RFU TMPRSS6 (11731388_a_at) / Fold change /veh TMPRSS6 (11731388_a_at) / RFU KRTAP10-2 (11738614_at) / Fold change /veh KRTAP10-2 (11738614_at) / RFU ARHGAP8 /// PRR5-ARHGAP8 (11727945_x_at) / Fold change /veh ARHGAP8 /// PRR5-ARHGAP8 (11727945_x_at) / RFU KRTAP5-7 /// NADSYN1 (11734609_at) / Fold change /veh KRTAP5-7 /// NADSYN1 (11734609_at) / RFU RASL12 (11751679_a_at) / Fold change /veh RASL12 (11751679_a_at) / RFU CDKN2B (11736163_a_at) / Fold change /veh CDKN2B (11736163_a_at) / RFU PRF1 (11729649_at) / Fold change /veh PRF1 (11729649_at) / RFU, ZNF638 /// ZNF638-IT1 / Fold change vs veh, ZNF638 /// ZNF638-IT1 / RFU, PANK3 / Fold change vs veh, PANK3 / RFU, SH3YL1 / Fold change vs veh, SH3YL1 / RFU, ZEB2 / Fold change vs veh, ZEB2 / RFU, NRIP1 / Fold change vs veh, NRIP1 / RFU, PTTG1IP / Fold change vs veh, PTTG1IP / RFU, CAPN2 / Fold change vs veh, CAPN2 / RFU, MED14 / Fold change vs veh, MED14 / RFU, SNORA58 / Fold change vs veh, SNORA58 / RFU, C1orf63 / Fold change vs veh, C1orf63 / RFU, LRRFIP1 / Fold change vs veh, LRRFIP1 / RFU, NDUFAF7 / Fold change vs veh, NDUFAF7 / RFU, SLC12A2 / Fold change vs veh, SLC12A2 / RFU, IBTK / Fold change vs veh, IBTK / RFU, ESF1 / Fold change vs veh, ESF1 / Fold change vs veh, TMEM50B / RFU, TAOK1 / Fold change vs veh, TAOK1 / RFU, ACBD3 / Fold change vs veh, ACBD3 / RFU, TMA16 / Fold change vs veh, TMA16 / RFU, RWDD3 / Fold change vs veh, RWDD3 / RFU, BCAT1 / Fold change vs veh, BCAT1 / RFU, EDEM3 / Fold change vs veh, EDEM3 / RFU, TMEM33 / Fold change vs veh, TMEM33 / RFU, WDR75 / Fold change vs veh, WDR75 / RFU, AHCTF1 / Fold change vs veh, AHCTF1 / RFU, TFRC / Fold change vs veh, TFRC / RFU, ZDHHC17 / Fold change vs veh, ZDHHC17 / RFU, NOM1 / Fold change vs veh, NOM1 / RFU, ARL8B / Fold change vs veh, ARL8B / RFU, ZBTB11 / Fold change vs veh, ZBTB11 / RFU, TAMM41 / Fold change vs veh, TAMM41 / RFU, KIAA1704 /// LOC100996395 / Fold change vs veh, KIAA1704 /// LOC100996395 / RFU, ING1 / Fold change vs veh, ING1 / RFU, TRMT61B / Fold change vs veh, TRMT61B / RFU, FUBP3 / Fold change vs veh, FUBP3 / RFU, TP53 / Fold change vs veh, TP53 / RFU, TNKS2 / Fold change vs veh, TNKS2 / RFU, ZFP14 / Fold change vs veh, ZFP14 / RFU, ACTR2 / Fold change vs veh, ACTR2 / RFU, PPP3R1 / Fold change vs veh, PPP3R1 / RFU, PIK3R1 / Fold change vs veh, PIK3R1 / RFU, HNRNPA1 / Fold change vs veh, HNRNPA1 / RFU, RNF170 / Fold change vs veh, RNF170 / RFU, ZNF28 / Fold change vs veh, ZNF28 / RFU, RNGTT / Fold change vs veh, RNGTT / RFU, OGT / Fold change vs veh, OGT / RFU, BRD1 / Fold change vs veh, BRD1 / RFU, MARS / Fold change vs veh, MARS / RFU, ZNF655 / Fold change vs veh, ZNF655 / RFU, FAHD1 / Fold change vs veh, FAHD1 / RFU, BDP1 / Fold change vs veh, BDP1 / RFU, LRRCC1 / Fold change vs veh, LRRCC1 / RFU, ARID1A / Fold change vs veh, ARID1A / RFU, ZNF146 / Fold change vs veh, ZNF146 / RFU, ZNF330 / Fold change vs veh, ZNF330 / RFU, GPN3 / Fold change vs veh, GPN3 / RFU, C9orf123 / Fold change vs veh, C9orf123 / RFU, N4BP2L2 / Fold change vs veh, N4BP2L2 / RFU, ARFIP1 / Fold change vs veh, ARFIP1 / RFU, FAM179B / Fold change vs veh, FAM179B / RFU, BCL10 / Fold change vs veh, BCL10 / RFU, UHRF1BP1L / Fold change vs veh, UHRF1BP1L / RFU, BET1 / Fold change vs veh, BET1 / RFU, CNOT2 / Fold change vs veh, CNOT2 / RFU, ZNF268 / Fold change vs veh, ZNF268 / Fold change vs veh, ZNF507 / RFU, DGCR2 / Fold change vs veh, DGCR2 / RFU, WDSUB1 / Fold change vs veh, WDSUB1 / Fold change vs veh, HSP90B1 /// MIR3652 / RFU, ADSS / Fold change vs veh, ADSS / RFU, GK / Fold change vs veh, GK / RFU, ZNF148 / Fold change vs veh, ZNF148 / RFU, TAF9 / Fold change vs veh, TAF9 / RFU, SLC1A5 / Fold change vs veh, SLC1A5 / RFU, SLMO2 / Fold change vs veh, SLMO2 / RFU, ABCC4 / Fold change vs veh, ABCC4 / RFU, LOC101060439 /// RAP1B / Fold change vs veh, LOC101060439 /// RAP1B / RFU, RFX7 / Fold change vs veh, RFX7 / RFU, GTPBP10 / Fold change vs veh, GTPBP10 / RFU, CNEP1R1 / Fold change vs veh, CNEP1R1 / RFU, BIVM-ERCC5 /// ERCC5 / Fold change vs veh, BIVM-ERCC5 /// ERCC5 / RFU, ILF3 / Fold change vs veh, ILF3 / RFU 11762660_at / Fold change /veh 11762660_at / RFU VCAN (11757783_s_at) / Fold change /veh VCAN (11757783_s_at) / RFU DDX43 (11728927_at) / Fold change /veh DDX43 (11728927_at) / RFU KRT8 (11758188_x_at) / Fold change /veh KRT8 (11758188_x_at) / RFU NKD1 (11759106_at) / Fold change /veh NKD1 (11759106_at) / RFU SRD5A1 (11742802_a_at) / Fold change /veh SRD5A1 (11742802_a_at) / RFU TPSAB1 /// TPSB2 (11721975_s_at) / Fold change /veh TPSAB1 /// TPSB2 (11721975_s_at) / RFU GSTM3 (11746129_a_at) / Fold change /veh GSTM3 (11746129_a_at) / RFU IL23R (11737362_x_at) / Fold change /veh IL23R (11737362_x_at) / RFU TMEM51 (11727254_a_at) / Fold change /veh TMEM51 (11727254_a_at) / RFU PIWIL2 (11732686_x_at) / Fold change /veh PIWIL2 (11732686_x_at) / RFU ORM1 (11744905_x_at) / Fold change /veh ORM1 (11744905_x_at) / RFU CCDC152 (11743942_at) / Fold change /veh CCDC152 (11743942_at) / RFU ECM1 (11717891_a_at) / Fold change /veh ECM1 (11717891_a_at) / RFU IL23R (11748794_a_at) / Fold change /veh IL23R (11748794_a_at) / RFU TNFAIP8L3 (11732012_x_at) / Fold change /veh TNFAIP8L3 (11732012_x_at) / RFU MBOAT4 (11741988_at) / Fold change /veh MBOAT4 (11741988_at) / RFU 11764193_at / Fold change /veh 11764193_at / RFU TMEM53 (11763286_at) / Fold change /veh TMEM53 (11763286_at) / RFU MAGEB2 (11727129_at) / Fold change /veh MAGEB2 (11727129_at) / RFU TMEM200A (11744735_a_at) / Fold change /veh TMEM200A (11744735_a_at) / RFU CCDC152 (11751479_a_at) / Fold change /veh CCDC152 (11751479_a_at) / RFU FAM211A (11726209_a_at) / Fold change /veh FAM211A (11726209_a_at) / RFU RGS16 (11746705_a_at) / Fold change /veh RGS16 (11746705_a_at) / RFU VCAN (11755009_s_at) / Fold change /veh VCAN (11755009_s_at) / RFU RHOB (11743442_s_at) / Fold change /veh RHOB (11743442_s_at) / RFU RGS16 (11720943_a_at) / Fold change /veh RGS16 (11720943_a_at) / RFU RGS16 (11720944_at) / Fold change /veh RGS16 (11720944_at) / RFU, VPS4B / Fold change vs veh, VPS4B / RFU, CREB1 / Fold change vs veh, CREB1 / RFU, DNAJC13 / Fold change vs veh, DNAJC13 / RFU, GNAQ / Fold change vs veh, GNAQ / RFU, CDK5R1 / Fold change vs veh, CDK5R1 / RFU, ZRANB3 / Fold change vs veh, ZRANB3 / RFU, CUL4A / Fold change vs veh, CUL4A / RFU, CCNY / Fold change vs veh, CCNY / RFU, UFL1 / Fold change vs veh, UFL1 / RFU, COG3 / Fold change vs veh, COG3 / RFU, DIAPH2 / Fold change vs veh, DIAPH2 / RFU, SKA2 / Fold change vs veh, SKA2 / RFU, AFF3 / Fold change vs veh, AFF3 / RFU, LMF1 / Fold change vs veh, LMF1 / RFU, IPO11 / Fold change vs veh, IPO11 / RFU, DFFB / Fold change vs veh, DFFB / RFU, FOXP1 / Fold change vs veh, FOXP1 / RFU, CARD8 / Fold change vs veh, CARD8 / RFU, STRN3 / Fold change vs veh, STRN3 / RFU, ADK / Fold change vs veh, ADK / RFU, RASSF2 / Fold change vs veh, RASSF2 / RFU, WIPF1 / Fold change vs veh, WIPF1 / RFU, LARP1B / Fold change vs veh, LARP1B / RFU, RASA1 / Fold change vs veh, RASA1 / RFU, RB1 / Fold change vs veh, RB1 / RFU, PPFIA1 / Fold change vs veh, PPFIA1 / RFU, MAT2A / Fold change vs veh, MAT2A / RFU, CCT5 / Fold change vs veh, CCT5 / RFU, WDR92 / Fold change vs veh, WDR92 / RFU, CUX1 / Fold change vs veh, CUX1 / RFU, TTC7A / Fold change vs veh, TTC7A / RFU, TMEM135 / Fold change vs veh, TMEM135 / RFU, DEPTOR / Fold change vs veh, DEPTOR / RFU, CPM / Fold change vs veh, CPM / RFU, DNAJB6 / Fold change vs veh, DNAJB6 / RFU, CACNA2D3 / Fold change vs veh, CACNA2D3 / RFU, DTX4 / Fold change vs veh, DTX4 / RFU, TFCP2 / Fold change vs veh, TFCP2 / RFU, GMCL1 /// GMCL1P1 / Fold change vs veh, GMCL1 /// GMCL1P1 / RFU, AEBP2 / Fold change vs veh, AEBP2 / RFU, SNHG1 /// SNORD22 /// SNORD25 /// SNORD26 /// SNORD27 /// SNORD28 /// SNORD29 /// SNORD31 / Fold change vs veh, SNHG1 /// SNORD22 /// SNORD25 /// SNORD26 /// SNORD27 /// SNORD28 /// SNORD29 /// SNORD31 / Fold change (Aza/veh), C12orf56 (ProbeSet 11735607_a_at) / Fold change (ACY-1035/veh), C12orf56 (ProbeSet 11735607_a_at) / Fold change (Aza/veh), FGFR1OP (ProbeSet 11751329_s_at) / Fold change (ACY-1035/veh), FGFR1OP (ProbeSet 11751329_s_at) / Fold change (Aza/veh), VPS36 (ProbeSet 11739960_a_at) / Fold change (ACY-1035/veh), VPS36 (ProbeSet 11739960_a_at) / RFU SYPL1 (11715823_x_at) / Fold change /veh SYPL1 (11715823_x_at) / RFU IGFBP7 (11715501_s_at) / Fold change /veh IGFBP7 (11715501_s_at) / RFU REEP3 (11722064_at) / Fold change /veh REEP3 (11722064_at) / RFU IGLL1 (11728026_x_at) / Fold change /veh IGLL1 (11728026_x_at): dose or concentration left out as unconfirmed
Settings: ProbeSet 11756954_s_at; LIST B

Nc1ccc(-c2cccs2)cc1NC(=O)c1ccc2c(c1)cc(C1CC1)n2CCN1CCOCC1 [ACY-1035]
RFU, ZEB2: 1361.36 RFU
